Assay results from patent US20160002217A1, “FUNGICIDAL 3--OXADIAZOLONE DERIVATIVES” (BAYER CROPSCIENCE AG, priority 2013, published 2016).
Marks after values point to notes of the source that are not given here.

Tests used:
[1] = pH 2.7
[2] = test system: Phytophthora infestans; type: in vivo; settings: tomato plants, preventive spray, 500 ppm of active ingredient, evaluated 5 days after inoculation

Structure (SMILES): CC(Oc1ccccc1)C(=O)Nc1nc(CON=C(c2ccsc2)c2noc(=O)n2C)cs1 (racemic) [Example 43]
- LogP [1]: 3.37^[a]
- % efficacy [2]: 98%

Structure (SMILES): Cn1c(C(=NOCc2cccc(NC(=O)OC(C)(C)C)n2)c2ncccn2)noc1=O (single isomer, unassigned) [Example 27]
- LogP [1]: 2.66^[a][b]

Structure (SMILES): Cn1c(C(=NOCc2cccc(NC(=O)OC(C)(C)C)n2)c2ncccn2)noc1=O (single isomer, unassigned) [Example 28]
- LogP [1]: 2.56^[a][c]

Structure (SMILES): CCn1oc(=O)nc1C(=NOCc1cccc(N)n1)c1ccccn1 [Example 1]
- LogP [1]: 0.69^[a]

Structure (SMILES): CCCCCOC(=O)Nc1cccc(CON=C(c2ccccn2)c2nc(=O)on2CC)n1 [Example 2]
- LogP [1]: 3.42^[a]

Structure (SMILES): CCCCOC(=O)Nc1cccc(CON=C(c2ccccn2)c2noc(=O)n2C)n1 [Example 3]
- LogP [1]: 3.25^[a]
- % efficacy [2]: 100%

Structure (SMILES): CCCCCC(=O)Nc1cccc(CON=C(c2ccccn2)c2noc(=O)n2C)n1 [Example 4]
- LogP [1]: 3.13^[a]
- % efficacy [2]: 88%

Structure (SMILES): CCCCOC(=O)Nc1cccc(CON=C(c2ccccn2)c2nc(=O)on2CC)n1 [Example 5]
- LogP [1]: 2.96^[a]

Structure (SMILES): CCCCC(=O)Nc1cccc(CON=C(c2ccccn2)c2nc(=O)on2CC)n1 [Example 6]
- LogP [1]: 2.49^[a]

Structure (SMILES): C#CCCOC(=O)Nc1cccc(CON=C(c2ccccn2)c2noc(=O)n2C)n1 [Example 7]
- LogP [1]: 2.56^[a]
- % efficacy [2]: 85%

Structure (SMILES): CCn1oc(=O)nc1C(=NOCc1cccc(NC(=O)OC(C)(C)C)n1)c1ccccn1 [Example 8]
- LogP [1]: 2.84^[a]

Structure (SMILES): CCCCC(=O)Nc1cccc(CON=C(c2ccccn2)c2nc(=O)on2C)n1 [Example 10]
- LogP [1]: 2.25^[a]

Structure (SMILES): CCCCCC(=O)Nc1cccc(CON=C(c2ccccn2)c2nc(=O)on2CC)n1 [Example 11]
- LogP [1]: 2.84^[a]

Structure (SMILES): CCCCCOC(=O)Nc1cccc(CON=C(c2ccccn2)c2noc(=O)n2C)n1 [Example 12]
- LogP [1]: 3.67^[a]
- % efficacy [2]: 85%

Structure (SMILES): Cn1c(C(=NOCc2cccc(N)n2)c2ccccn2)noc1=O [Example 14]
- LogP [1]: 0.85^[a]

Structure (SMILES): CCCCCOC(=O)Nc1cccc(CON=C(c2ccccn2)c2nc(=O)on2C)n1 [Example 15]
- LogP [1]: 3.09^[a]
- % efficacy [2]: 88%

Structure (SMILES): CCCCCC(=O)Nc1cccc(CON=C(c2ccccn2)c2nc(=O)on2C)n1 [Example 18]
- LogP [1]: 2.61^[a]

Structure (SMILES): CC(C)(C)OC(=O)Nc1nc(CON=C(c2ccsc2)c2noc(=O)[nH]2)cs1 [Example 20]
- LogP [1]: 3.20^[a]

Structure (SMILES): CCCCOC(=O)Nc1cccc(CON=C(c2ccccn2)c2nc(=O)on2C)n1 [Example 21]
- LogP [1]: 2.70^[a]

Structure (SMILES): CC(C)(C)OC(=O)Nc1nc(CON=C(c2noc(=O)[nH]2)c2cccs2)cs1 [Example 24]
- LogP [1]: 3.26^[a]

Structure (SMILES): Cn1oc(=O)nc1C(=NOCc1cccc(NC(=O)OC(C)(C)C)n1)c1ncccn1 [Example 25]
- LogP [1]: 2.14^[a]

Structure (SMILES): CC(C)(C)OC(=O)Nc1cccc(CON=C(c2ncccn2)c2noc(=O)[nH]2)n1 [Example 26]
- LogP [1]: 2.27^[a]

Structure (SMILES): Cn1oc(=O)nc1C(=NOCc1cccc(N)n1)c1ncccn1 [Example 29]
- LogP [1]: 0.92^[a]

Structure (SMILES): Cn1c(C(=NOCc2cccc(N)n2)c2ncccn2)noc1=O [Example 30]
- LogP [1]: 0.39^[a]

Structure (SMILES): Cn1oc(=O)nc1C(=NOCc1cccc(NC(=O)OC(C)(C)C)n1)c1cccnc1 [Example 31]
- LogP [1]: 2.28 + 2.37^[a]

Structure (SMILES): Cn1oc(=O)nc1C(=NOCc1cccc(N)n1)c1cccnc1 [Example 34]
- LogP [1]: 1.19^[a]

Structure (SMILES): Cn1c(C(=NOCc2cccc(N)n2)c2cccnc2)noc1=O [Example 35]
- LogP [1]: 0.52 ± 0.46^[a]

Structure (SMILES): CC(C)(C)OC(=O)Nc1cccc(CON=C(c2ccncc2)c2noc(=O)[nH]2)n1 [Example 36]
- LogP [1]: 2.37^[a]

Structure (SMILES): Cn1oc(=O)nc1C(=NOCc1cccc(NC(=O)OC(C)(C)C)n1)c1ccncc1 [Example 37]
- LogP [1]: 2.21^[a]
- % efficacy [2]: 80%

Structure (SMILES): Cn1c(C(=NOCc2cccc(NC(=O)OC(C)(C)C)n2)c2ccncc2)noc1=O [Example 38]
- LogP [1]: 2.75^[a]
- % efficacy [2]: 100%

Structure (SMILES): Cn1oc(=O)nc1C(=NOCc1cccc(N)n1)c1ccncc1 [Example 39]
- LogP [1]: 1.20^[c]

Structure (SMILES): Cn1c(C(=NOCc2cccc(N)n2)c2ccncc2)noc1=O [Example 40]
- LogP [1]: 0.41^[a]

Structure (SMILES): CN(C(=O)OC(C)(C)C)c1nc(CON=C(c2cccs2)c2noc(=O)n2C)cs1 [Example 41]
- LogP [1]: 4.24^[a]

Structure (SMILES): Cn1c(C(=NOCc2csc(NC(=O)OC(C)(C)C)n2)c2cccs2)noc1=O [Example 42]
- LogP [1]: 3.35^[a]
- % efficacy [2]: 93%

Structure (SMILES): CCCCOC(=O)Nc1cccc(CON=C(c2ncccn2)c2nc(=O)on2C)n1 [Example 46]
- LogP [1]: 2.23^[a]

Structure (SMILES): CCCCCC(=O)Nc1cccc(CON=C(c2cccnc2)c2noc(=O)n2C)n1 [Example 47]
- LogP [1]: 2.86^[a]

Structure (SMILES): CCCCCC(=O)Nc1cccc(CON=C(c2ncccn2)c2nc(=O)on2C)n1 [Example 48]
- LogP [1]: 2.18^[a]

Structure (SMILES): CCCCCOC(=O)Nc1cccc(CON=C(c2cccnc2)c2noc(=O)n2C)n1 [Example 49]
- LogP [1]: 3.37^[a]
- % efficacy [2]: 99%

Structure (SMILES): CCCCOC(=O)Nc1cccc(CON=C(c2cccnc2)c2noc(=O)n2C)n1 [Example 50]
- LogP [1]: 2.98^[a]
- % efficacy [2]: 100%

Structure (SMILES): C#CCCOC(=O)Nc1cccc(CON=C(c2cccnc2)c2noc(=O)n2C)n1 [Example 51]
- LogP [1]: 2.32^[a]
- % efficacy [2]: 90%

Structure (SMILES): CCCCCOC(=O)Nc1cccc(CON=C(c2ncccn2)c2noc(=O)n2C)n1 [Example 52]
- LogP [1]: 3.06^[a]
- % efficacy [2]: 88%

Structure (SMILES): CCCCOC(=O)Nc1cccc(CON=C(c2ncccn2)c2noc(=O)n2C)n1 [Example 53]
- LogP [1]: 2.68^[a]
- % efficacy [2]: 85%

Structure (SMILES): C#CCCOC(=O)Nc1cccc(CON=C(c2ncccn2)c2noc(=O)n2C)n1 [Example 54]
- LogP [1]: 2.08^[a]

Structure (SMILES): CCCCCOC(=O)Nc1cccc(CON=C(c2cccnc2)c2nc(=O)on2C)n1 [Example 55]
- LogP [1]: 2.84^[a]
- % efficacy [2]: 92%

Structure (SMILES): CCCCC(=O)Nc1cccc(CON=C(c2ncccn2)c2nc(=O)on2C)n1 [Example 58]
- LogP [1]: 1.84^[a]

Structure (SMILES): CCCCC(=O)Nc1cccc(CON=C(c2ncccn2)c2noc(=O)n2C)n1 [Example 61]
- LogP [1]: 2.23^[a]

Structure (SMILES): CCCCC(=O)Nc1cccc(CON=C(c2cccnc2)c2nc(=O)on2C)n1 [Example 62]
- LogP [1]: 2.04^[a]

Structure (SMILES): Cn1c(C(=NOCc2csc(NC(=O)c3ccc(F)cc3)n2)c2ccsc2)noc1=O [Example 64]
- LogP [1]: 3.26^[a]

Structure (SMILES): Cn1c(C(=NOCc2csc(N(COCC[Si](C)(C)C)C(=O)OC(C)(C)C)n2)c2ccsc2)noc1=O [Example 65]
- LogP [1]: 5.86^[a]

Structure (SMILES): CC(C)(C)OC(=O)N(COCC[Si](C)(C)C)c1nc(CON=C(c2ccsc2)c2noc(=O)[nH]2)cs1 [Example 66]
- LogP [1]: 5.45^[a]

Structure (SMILES): CCCCCOC(=O)Nc1nc(CON=C(c2ccsc2)c2noc(=O)n2C)cs1 [Example 68]
- LogP [1]: 3.81^[a]

Structure (SMILES): Cn1c(C(=NOCc2csc(N(COCC[Si](C)(C)C)C(=O)OC(C)(C)C)n2)c2cccs2)noc1=O [Example 70]
- LogP [1]: 5.84^[a]

Structure (SMILES): CC(C)(C)OC(=O)N(COCC[Si](C)(C)C)c1nc(CON=C(c2noc(=O)[nH]2)c2cccs2)cs1 [Example 72]
- LogP [1]: 5.45^[a]

Structure (SMILES): CCCCC(=O)Nc1cccc(CON=C(c2ccncc2)c2nc(=O)on2C)n1 [Example 75]
- LogP [1]: 1.88^[a]

Structure (SMILES): C#CCCOC(=O)Nc1cccc(CON=C(c2ccncc2)c2nc(=O)on2C)n1 [Example 76]
- LogP [1]: 1.74^[a]

Structure (SMILES): CCCCCC(=O)Nc1cccc(CON=C(c2ccncc2)c2nc(=O)on2C)n1 [Example 77]
- LogP [1]: 2.23^[a]

Structure (SMILES): CCCCCOC(=O)Nc1cccc(CON=C(c2ccncc2)c2nc(=O)on2C)n1 [Example 78]
- LogP [1]: 2.68^[a]

Structure (SMILES): CCCCOC(=O)Nc1cccc(CON=C(c2ccncc2)c2nc(=O)on2C)n1 [Example 79]
- LogP [1]: 2.32^[a]

Structure (SMILES): Cn1c(C(=NOCc2csc(N)n2)c2cccs2)noc1=O [Example 81]
- LogP [1]: 1.38^[a]

Structure (SMILES): Cn1c(C(=NOCc2csc(NC(=O)c3ccc(F)cc3)n2)c2cccs2)noc1=O [Example 85]
- LogP [1]: 3.20^[a]

Structure (SMILES): Cn1c(C(=NOCc2csc(NC(=O)COc3ccccc3)n2)c2cccs2)noc1=O [Example 86]
- LogP [1]: 3.18^[a]

Structure (SMILES): CC(C)(C)OC(=O)Nc1nc(CON=C(C#N)c2ccsc2)cs1 [Example IV-01]
- LogP [1]: 3.62^[a]

Structure (SMILES): CC(C)(C)OC(=O)Nc1cccc(CON=C(C#N)c2ncccn2)n1 [Example IV-03]
- LogP [1]: 2.82^[a]

Structure (SMILES): CC(C)(C)OC(=O)Nc1cccc(CON=C(C#N)c2ccncc2)n1 [Example IV-04]
- LogP [1]: 3.05^[a]

Structure (SMILES): CC(C)(C)OC(=O)Nc1nc(CON=C(C#N)c2cccs2)cs1 [Example IV-05]
- LogP [1]: 3.65^[a]

Structure (SMILES): CC(C)(C)OC(=O)N(COCC[Si](C)(C)C)c1nc(CON=C(C#N)c2cccs2)cs1 [Example IV-06]
- LogP [1]: 6.35^[a]

Structure (SMILES): CCOC(=O)c1nc(CON=C(C#N)c2ccsc2)cs1 [Example IV-08]
- LogP [1]: 3.15^[a]

Structure (SMILES): Cc1nc(CON=C(C#N)c2ccsc2)cs1 [Example IV-09]
- LogP [1]: 1.45^[a]

Structure (SMILES): N#CC(=NOCc1csc(NC(=O)c2ccc(F)cc2)n1)c1ccsc1 [Example IV-10]
- LogP [1]: 3.51^[a]

Structure (SMILES): CC(C)(C)OC(=O)N(C(=O)OC(C)(C)C)c1nc(CON=C(C#N)c2ccsc2)cs1 [Example IV-11]
- LogP [1]: 4.90^[a]

Structure (SMILES): CC(C)(C)OC(=O)Nc1cccc(CON=C(C(N)=NO)c2ccccn2)n1 [Example V-01]
- LogP [1]: 1.76^[a]

Structure (SMILES): CC(C)(C)OC(=O)Nc1nc(CON=C(C(N)=NO)c2ccsc2)cs1 [Example V-02]
- LogP [1]: 2.17^[a]

Structure (SMILES): CC(C)(C)OC(=O)N(COCC[Si](C)(C)C)c1nc(CON=C(C(N)=NO)c2cccs2)cs1 [Example V-04]
- LogP [1]: 4.60^[a]

Structure (SMILES): CCOC(=O)c1nc(CON=C(C(N)=NO)c2ccsc2)cs1 [Example V-05]
- LogP [1]: 1.70^[a]

Structure (SMILES): CC(C)(C)OC(=O)Nc1cccc(CON=C(C(N)=NO)c2ccncc2)n1 [Example V-06]
- LogP [1]: 1.53^[a]

Structure (SMILES): CC(C)(C)OC(=O)Nc1cccc(CON=C(C(N)=NO)c2ncccn2)n1 [Example V-07]
- LogP [1]: 1.58 + 1.87^[a]

Structure (SMILES): CC(C)(C)OC(=O)Nc1nc(CON=C(C(N)=NO)c2cccs2)cs1 [Example V-08]
- LogP [1]: 2.26^[a]
